Legend:
human 11β-HSD1 = target: T1, human 11β-HSD1 (Homo sapiens, UniProt P28845); assay: Enzyme activity analysis on human 11β-HSD1 (HTRF cortisol, liver microsomes); format: biochemical; conditions: first value of cell
T1 construct: 100 ug/ml human/mouse liver microsomes; from tissue; host or cells: human liver microsomes
Method in brief: (§1)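 Cortisol generated by mouse or human liver microsome 11β-HSD1 during 2 h at 37° C., measured by HTRF competition (cryptate anti-cortisol antibody, d2-cortisol, 2 h room temperature) against a cortisol standard curve. IC50 from percent inhibition versus no-compound control.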

mouse 11β-HSD1 = target: T2, mouse 11β-HSD1 (Mus musculus, UniProt P50172); assay: Enzyme activity analysis on mouse 11β-HSD1 (HTRF cortisol, liver microsomes); format: biochemical; conditions: second value of cell
T2 construct: 100 ug/ml human/mouse liver microsomes; from tissue; host or cells: mouse liver microsomes
Method in brief: as §1

T2 sequence (P50172 whole entry): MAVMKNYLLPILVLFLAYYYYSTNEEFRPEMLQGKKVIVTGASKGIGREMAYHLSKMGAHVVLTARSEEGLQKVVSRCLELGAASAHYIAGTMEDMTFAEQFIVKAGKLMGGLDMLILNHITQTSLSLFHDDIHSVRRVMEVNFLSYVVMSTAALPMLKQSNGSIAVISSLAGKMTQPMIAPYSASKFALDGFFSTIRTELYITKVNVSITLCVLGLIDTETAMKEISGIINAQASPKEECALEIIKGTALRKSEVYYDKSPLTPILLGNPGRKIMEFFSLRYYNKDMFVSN
T1 sequence (P28845 whole entry): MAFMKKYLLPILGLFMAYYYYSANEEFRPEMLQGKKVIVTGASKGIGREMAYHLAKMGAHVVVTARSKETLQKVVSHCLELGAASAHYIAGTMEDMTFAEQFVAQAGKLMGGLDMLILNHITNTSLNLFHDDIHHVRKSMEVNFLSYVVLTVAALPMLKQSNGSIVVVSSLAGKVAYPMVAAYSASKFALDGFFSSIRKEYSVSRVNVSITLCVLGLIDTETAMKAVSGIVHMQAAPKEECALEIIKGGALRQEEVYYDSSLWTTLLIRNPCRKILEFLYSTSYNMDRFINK

`O=C(NCCO)C12CC3CC(C1)C(NC(=O)C1(NS(=O)(=O)c4ccccc4Cl)CCC1)C(C3)C2` (stereo not drawn) [compound 232] was tested, and the IC50 (human 11β-HSD1) was > 2.5 µM and the IC50 (mouse 11β-HSD1) was > 2.5 µM.

`CC(C)c1ccc(S(=O)(=O)NC(C)(C)C(=O)NC2C3CC4CC(C3)CC2C4)cc1` (stereo not drawn) [compound 57, N-(adamantane-2-yl)-2-methyl-2-(4-isopropylphenylsulfonamido)propanamide] was tested, and the IC50 (human 11β-HSD1) was 1.04 µM and the IC50 (mouse 11β-HSD1) was 1.32 µM.

Work on `CC(C)(NS(=O)(=O)c1cccc(Br)c1)C(=O)NC1C2CC3CC1CC(C(N)=O)(C3)C2` (stereo not drawn) [compound 123] yielded an IC50 (human 11β-HSD1) of 0.139 µM and an IC50 (mouse 11β-HSD1) of 0.291 µM.

For `CCN(C(C)(C)C(=O)NC1C2CC3CC1CC(C(N)=O)(C3)C2)S(=O)(=O)c1cccc(Cl)c1Cl` (stereo not drawn) [compound 212], the IC50 (human 11β-HSD1) was 0.024 µM and the IC50 (mouse 11β-HSD1) was 0.191 µM.

`Cc1ccc(F)c(S(=O)(=O)NC(C)(C)C(=O)NC2C3CC4CC2CC(C(N)=O)(C4)C3)c1` (stereo not drawn) [compound 94, N-4-(2-(2-fluoro-5-methylphenylsulfonamido)-2-methylpropanamido)adamantane-1-carboxyamide] showed an IC50 (human 11β-HSD1) of 0.013 µM and an IC50 (mouse 11β-HSD1) of 0.123 µM.

Molecule `CC(C)(NS(=O)(=O)c1ccc(F)cc1Cl)C(=O)NC1C2CC3CC(C2)CC1C3` (stereo not drawn) [compound 55, N-(adamantane-2-yl)-2-methyl-2-(4-fluoro-2-chlorophenylsulfonamido)propanamide] has an IC50 (human 11β-HSD1) of 0.039 µM and an IC50 (mouse 11β-HSD1) of 0.186 µM.

Molecule `O=C(NC1C2CC3CC(C2)CC1C3)C1(NS(=O)(=O)c2ccccc2C(F)(F)F)CCC1` (stereo not drawn) [compound 140, N-(adamantane-2-yl)-1-(2-trifluoromethylphenylsulfonamido)cyclobutanecarboxyamide] has an IC50 (human 11β-HSD1) of 0.184 µM and an IC50 (mouse 11β-HSD1) of 1.68 µM.

`CC(C)(NS(=O)(=O)CCc1cccc2ccccc12)C(=O)NC1C2CC3CC(C2)CC1C3` (stereo not drawn) [compound 52, N-(adamantane-2-yl)-2-methyl-2-(2-(naphthalene-1-yl)ethylsulfonamido)propanamide] was tested, and the IC50 (human 11β-HSD1) was 1.17 µM and the IC50 (mouse 11β-HSD1) was 2.14 µM.

In the case of `CN(C1(C(=O)NC2C3CC4CC2CC(C(N)=O)(C4)C3)CCC1)S(=O)(=O)c1ccccc1[N+](=O)[O-]` (stereo not drawn) [compound 199, N-4-(1-(N-methyl-2-nitrophenylsulfonamido)cyclobutanecarboxyamido)adamantane-1-carboxyamide], the IC50 (human 11β-HSD1) was 0.004 µM and the IC50 (mouse 11β-HSD1) was 0.016 µM.

`CN(C(C)(C)C(=O)NC1C2CC3CC1CC(O)(C3)C2)S(=O)(=O)c1ccccc1N` (stereo not drawn) [compound 225] gave an IC50 (human 11β-HSD1) of 0.011 µM and an IC50 (mouse 11β-HSD1) of 0.083 µM.

Work on `CC(C)(NS(=O)(=O)c1cccc(Br)c1)C(=O)NC1C2CC3CC(C2)CC1C3` (stereo not drawn) [compound 64, N-(adamantane-2-yl)-2-methyl-2-(3-bromophenylsulfonamido)propanamide] yielded an IC50 (human 11β-HSD1) of 0.433 µM and an IC50 (mouse 11β-HSD1) of 1.02 µM.

In the case of `NC(=O)C12CC3CC(C1)C(NC(=O)C1(NS(=O)(=O)c4ccccc4OC(F)(F)F)CCC1)C(C3)C2` (stereo not drawn) [compound 160, N-4-(1-(2-trifluoromethoxyphenylsulfonamido)cyclobutanecarboxyamido)adamantane-1-carboxyamide], the IC50 (human 11β-HSD1) was 0.018 µM and the IC50 (mouse 11β-HSD1) was 0.113 µM.

`CCN(CC)C(=O)C12CC3CC(C1)C(NC(=O)C(C)(C)NS(=O)(=O)c1ccccc1Cl)C(C3)C2` (stereo not drawn) [compound 227, 4-[2-(2-chloro-benzenesulfonylamino)-2-methyl-propionylamino]-adamantane-1-carboxylic acid diethylamide] was tested, and the IC50 (human 11β-HSD1) was > 2.5 µM and the IC50 (mouse 11β-HSD1) was > 2.5 µM.

`CC(C)(NS(=O)(=O)c1c(F)cccc1F)C(=O)NC1C2CC3CC(C2)CC1C3` (stereo not drawn) [compound 41, N-(adamantane-2-yl)-2-methyl-2-(2,6-difluorophenylsulfonamido)propanamide] gave an IC50 (human 11β-HSD1) of 0.041 µM and an IC50 (mouse 11β-HSD1) of 0.156 µM.

`CC(C)(NS(=O)(=O)c1cc(F)ccc1F)C(=O)NC1C2CC3CC1CC(C(N)=O)(C3)C2` (stereo not drawn) [compound 120] showed an IC50 (human 11β-HSD1) of 0.051 µM and an IC50 (mouse 11β-HSD1) of 0.453 µM.

`COc1cccc(S(=O)(=O)NC(C)(C)C(=O)NC2C3CC4CC(C3)CC2C4)c1` (stereo not drawn) [compound 29, N-(adamantane-2-yl)-2-methyl-2-(3-methoxyphenylsulfonamido)propanamide] showed an IC50 (human 11β-HSD1) of 0.216 µM and an IC50 (mouse 11β-HSD1) of 0.329 µM.

`CC(C)(NS(=O)(=O)c1ccccc1)C(=O)NC1C2CC3CC(C2)CC1C3` (stereo not drawn) [compound 1, N-(adamantane-2-yl)-2-methyl-2-(phenylsulfonamido)propanamide] was tested, and the IC50 (human 11β-HSD1) was 0.04 µM and the IC50 (mouse 11β-HSD1) was 0.19 µM.

For `Cc1c(Cl)cccc1S(=O)(=O)NC(C)(C)C(=O)NC1C2CC3CC(C2)CC1C3` (stereo not drawn) [compound 7, N-(adamantane-2-yl)-2-methyl-2-(3-chloro-2methylphenylsulfonamido)propanamide], the IC50 (human 11β-HSD1) was 0.08 µM and the IC50 (mouse 11β-HSD1) was 0.33 µM.

Work on `Cc1cc(F)ccc1S(=O)(=O)NC(C)(C)C(=O)NC1C2CC3CC(C2)CC1C3` (stereo not drawn) [compound 39, N-(adamantane-2-yl)-2-methyl-2-(4-fluoro-2-methylphenylsulfonamido)propanamide] yielded an IC50 (human 11β-HSD1) of 0.043 µM and an IC50 (mouse 11β-HSD1) of 0.561 µM.

With `CC(C)(NS(=O)(=O)c1ccc(Cl)cc1Cl)C(=O)NC1C2CC3CC1CC(C(N)=O)(C3)C2` (stereo not drawn) [compound 88, N-4-(2-(2,4-dichlorophenylsulfonamido)-2-methylpropanamido)adamantane-1-carboxyamide] the IC50 (human 11β-HSD1) was 0.014 µM and the IC50 (mouse 11β-HSD1) was 0.056 µM.

`COc1ccc(S(=O)(=O)NC(C)(C)C(=O)NC2C3CC4CC2CC(C(N)=O)(C4)C3)cc1[N+](=O)[O-]` (stereo not drawn) [compound 111, N-4-(2-(3-nitro-4-methoxyphenylsulfonamido)-2-methylpropanamido)adamantane-1-carboxyamide] was tested, and the IC50 (human 11β-HSD1) was 1.3 µM and the IC50 (mouse 11β-HSD1) was 2.46 µM.

`NC(=O)C12CC3CC(C1)C(NC(=O)C1(NS(=O)(=O)c4c(Cl)cccc4Cl)CCCC1)C(C3)C2` (stereo not drawn) [compound 175, N-4-(1-(2,6-dichlorophenylsulfonamido)cyclopentanecarboxyamido)adamantane-1-carboxyamide] showed an IC50 (human 11β-HSD1) of 0.006 µM and an IC50 (mouse 11β-HSD1) of 0.003 µM.

Molecule `CC(C)(NS(=O)(=O)c1ccc(Cl)c(Cl)c1Cl)C(=O)NC1C2CC3CC(C2)CC1C3` (stereo not drawn) [compound 51, N-(adamantane-2-yl)-2-methyl-2-(2,3,4-trichlorophenylsulfonamido)propanamide] has an IC50 (human 11β-HSD1) of 0.183 µM and an IC50 (mouse 11β-HSD1) of 1.3 µM.

Molecule `Cc1c(Cl)cccc1S(=O)(=O)NC1(C(=O)NC2C3CC4CC2CC(C(N)=O)(C4)C3)CCCC1` (stereo not drawn) [compound 167, N-4-(1-(3-chloro-2-methylphenylsulfonamido)cyclopentanecarboxyamido)adamantane-1-carboxyamide] has an IC50 (human 11β-HSD1) of 0.008 µM and an IC50 (mouse 11β-HSD1) of 0.016 µM.

Work on `NC(=O)C12CC3CC(C1)C(NC(=O)C1(NS(=O)(=O)c4cccc5cccnc45)CCCCC1)C(C3)C2` (stereo not drawn) [compound 182, N-4-(1-(quinoline-8-sulfonamido)cyclohexanecarboxyamido)adamantane-1-carboxyamide] yielded an IC50 (human 11β-HSD1) of 0.018 µM and an IC50 (mouse 11β-HSD1) of 0.006 µM.

Work on `CC(C)(NS(=O)(=O)c1ccccc1F)C(=O)NC1C2CC3CC1CC(O)(C3)C2` (stereo not drawn) [compound 69, N-(5-hydroxyadamantane-2-yl)-2-methyl-2-(2-fluorophenylsulfonamido)propanamide] yielded an IC50 (human 11β-HSD1) of 0.118 µM and an IC50 (mouse 11β-HSD1) of 0.258 µM.

Molecule `Cc1cccc(S(=O)(=O)NC(C)(C)C(=O)NC2C3CC4CC(C3)CC2C4)c1` (stereo not drawn) [compound 28, N-(adamantane-2-yl)-2-methyl-2-(3-methylphenylsulfonamido)propanamide] has an IC50 (human 11β-HSD1) of 0.133 µM and an IC50 (mouse 11β-HSD1) of 0.437 µM.

In the case of `NC(=O)C12CC3CC(C1)C(NC(=O)C1(NS(=O)(=O)c4ccc(OC(F)F)cc4)CCC1)C(C3)C2` (stereo not drawn) [compound 166, N-4-(1-(4-(difluoromethoxy)phenylsulfonamido)cyclobutanecarboxyamido)adamantane-1-carboxyamide], the IC50 (human 11β-HSD1) was 0.724 µM and the IC50 (mouse 11β-HSD1) was 0.559 µM.

For `CC(C)(NS(=O)(=O)c1cccc2cccnc12)C(=O)NC1C2CC3CC1CC(O)(C3)C2` (stereo not drawn) [compound 75, N-(5-hydroxyadamantane-2-yl)-2-methyl-2-(8-quinolinesulfonamido)propanamide], the IC50 (human 11β-HSD1) was 0.006 µM and the IC50 (mouse 11β-HSD1) was 0.005 µM.

For `CC(C)(NS(=O)(=O)Cc1ccccc1[N+](=O)[O-])C(=O)NC1C2CC3CC(C2)CC1C3` (stereo not drawn) [compound 22, N-(adamantane-2-yl)-2-methyl-2-((2-nitrophenyl)methylsulfonamido)propanamide], the IC50 (human 11β-HSD1) was 0.033 µM and the IC50 (mouse 11β-HSD1) was 1.06 µM.

With `Cc1ccc([N+](=O)[O-])cc1S(=O)(=O)NC(C)(C)C(=O)NC1C2CC3CC1CC(O)(C3)C2` (stereo not drawn) [compound 76, N-(5-hydroxyadamantane-2-yl)-2-methyl-2-(2-methyl-5-nitrophenylsulfonamido)propanamide] the IC50 (human 11β-HSD1) was 0.146 µM and the IC50 (mouse 11β-HSD1) was 2.08 µM.

`Cc1ccc(S(=O)(=O)NC2(C(=O)NC3C4CC5CC3CC(C(N)=O)(C5)C4)CCCCC2)cc1F` (stereo not drawn) [compound 187, N-4-(1-(3-fluoro-4-methylphenylsulfonamido)cyclohexanecarboxyamido)adamantane-1-carboxyamide] was tested, and the IC50 (human 11β-HSD1) was 0.076 µM and the IC50 (mouse 11β-HSD1) was > 2.5 µM.

Work on “N-4-(2-methoxy-6-fluoro-N-ethylphenylsulfonamido)-2-methylpropanamido)adamantane-1-carboxyamide [compound 214]” yielded an IC50 (human 11β-HSD1) of 0.012 µM and an IC50 (mouse 11β-HSD1) of 0.006 µM.

Work on `CCCc1ccc(S(=O)(=O)NC(C)(C)C(=O)NC2C3CC4CC(C3)CC2C4)cc1` (stereo not drawn) [compound 67, N-(adamantane-2-yl)-2-methyl-2-(4-propylphenylsulfonamido)propanamide] yielded an IC50 (human 11β-HSD1) of 1.29 µM and an IC50 (mouse 11β-HSD1) of 1.26 µM.

With `NC(=O)C12CC3CC(C1)C(NC(=O)C1(NS(=O)(=O)c4cccc(Cl)c4F)CCCC1)C(C3)C2` (stereo not drawn) [compound 177, N-4-(1-(2-fluoro-3-chlorophenylsulfonamido)cyclopentanecarboxyamido)adamantane-1-carboxyamide] the IC50 (human 11β-HSD1) was 0.009 µM and the IC50 (mouse 11β-HSD1) was 0.006 µM.

`CC(C)(NS(=O)(=O)c1cccc([N+](=O)[O-])c1)C(=O)NC1C2CC3CC1CC(O)(C3)C2` (stereo not drawn) [compound 77, N-(5-hydroxyadamantane-2-yl)-2-methyl-2-(3-nitrophenylsulfonamido)propanamide] showed an IC50 (human 11β-HSD1) of 0.492 µM and an IC50 (mouse 11β-HSD1) of 0.575 µM.

Reference: patent US9073830B2 (Hyundai Pharm Co., Ltd., priority 2011, dated 2015)
